Here are results for 4 molecules from patent US20240280562A1, “METHOD FOR QUANTIFYING ODORS, CELLS USED IN SAME, AND METHOD FOR PRODUCING SAID CELLS” (KOMI HAKKO CORPORATION, priority 2017, published 2024).

Each structure is given as a SMILES string.

In test [1] the target is Olfr1258 (Mus musculus, UniProt Q8VGN6). Description: Reconstruction experiment: cAMP-responsive luciferase in HEK293 cells expressing Olfr1258. It is filed as cell-based.
Test [2] deals with olfactory sensory neurons. Description: OneCell system Fluo-4 screening of olfactory epithelium-derived cells stimulated by an odor molecule. The conditions noted are these: 2-pentanone (30 mM) for 10 seconds and (3 mM) for 10 seconds; of approximately 10000 olfactory sensory neurons. It counts as cell-based, mouse. Here is the method:
C57/BL6J (male) aged 3 to 5 weeks were purchased from Japan SLC, Inc. The mice were beheaded after intravenous anesthesia with […] of Urethane solution (300 mg/mL; U2500, Sigma-Aldrich) and olfactory epithelium was extracted on ice. […] An equal amount of Ca^2+ ringer solution containing 0.1 mg/mL DNase I, 0.1 mg/mL BSA, and […] leupeptin (0.025 mg/mL trypsin inhibitor in the case of trypsin) was added thereto to stop the enzyme reaction, and the obtained solution then allowed to pass through a cell strainer twice to remove large tissue fragments.
The sample after removal was subjected to centrifugation treatment, and this was washed once to obtain an olfactory epithelium-derived cell solution.
(§1) The olfactory epithelium-derived cells were stimulated as follows.
The olfactory epithelium-derived cells were stimulated by an odor molecule, 2-pentanone (30 mM) for 10 seconds and 2-pentanone (3 mM) for 10 seconds under the above conditions, and olfactory sensory neurons included in olfactory epithelium-derived cells were then identified by a high K^+ ringer solution. As a result, approximately 100 of approximately 10000 olfactory sensory neurons reacted with 2-pentanone. […]

For test [3], the target named is T1, Olfr168 (Mus musculus, UniProt A0PK36).
T1 sequence (A0PK36 1-312): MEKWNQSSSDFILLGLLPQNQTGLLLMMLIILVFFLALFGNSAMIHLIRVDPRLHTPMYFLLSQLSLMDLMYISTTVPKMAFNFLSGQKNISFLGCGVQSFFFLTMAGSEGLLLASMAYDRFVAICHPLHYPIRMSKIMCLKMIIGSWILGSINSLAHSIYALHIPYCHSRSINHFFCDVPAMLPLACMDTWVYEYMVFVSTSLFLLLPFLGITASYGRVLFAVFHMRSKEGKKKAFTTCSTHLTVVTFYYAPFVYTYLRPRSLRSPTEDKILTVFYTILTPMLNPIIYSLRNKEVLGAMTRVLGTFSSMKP
Description: Fluo-4 Ca2+ uptake in isolated olfactory sensory neuron HI28-03 (calculation method (A)). It is filed as cell-based. To be noted: HI28-03 cells. Here is the method:
as §1
(§2) As a result, Olfr168 (mOR271-1; GenBank accession number: AY317252) and Olfr205 (mOR182-11P; GenBank accession number: BC150839) were identified in HI28-03 and HI25-18 respectively.
(§3) Specifically, the above Ca^2+ ringer solution was refluxed to the slide glass which had been put on the OneCell device and had stored olfactory epithelium-derived cells, and a Ca^2+ ringer solution containing 3 mM 2-pentanone described below was added thereto for 20 seconds every two minutes. The degree of increase in transient fluorescence intensity derived from Fluo-4 in each olfactory sensory neuron was repeatedly measured 5 times (FIG. 8).

Test [4] concerns the target T1, Olfr168. Description: Reconstruction experiment: cAMP-responsive luciferase in HEK 293T cells expressing Olfr168. It is filed as cell-based. To be noted: HEK 293T cells transiently expressing Olfr168, Gaolf, RTP1S, pGlosensor-22. The source says:
(§4) In order to verify whether or not the mouse-derived olfactory receptors obtained in the above 3) and 4) surely respond to odor molecules used for screening, a system in which adenylate cyclase is activated from a olfactory receptor through heterotrimeric G protein including Gaolf to accumulate cAMP from ATP, and luciferase expression is induced in an intracellular cAMP concentration-dependent manner, was reconstructed in HEK 293 cells.
(§5) Specifically, each of mouse-derived olfactory receptor genes, Olfr168, Olfr205, Olfr45 and Olfr166, and DNA coding for the amino acid sequence shown in SEQ ID NO:9 were fused. The obtained genes were incorporated into pME18S plasmid incorporated into downstream of SRa promoter, a plasmid having a base sequence coding for the amino acid sequence shown in SEQ ID NO:2 to allow Gaolf to be expressed, a plasmid to allow Receptor-transporting protein 1S (RTP1S) having a base sequence shown in SEQ ID NO:6, which is a factor to raise the efficiency of presentation of olfactory receptors from the Golgi body to the cell surface, to be expressed, and a cAMP-responsive luciferase expressing plasmid pGlosensor-22 (Promega Corporation). The plasmids are introduced into HEK 293T cells by Lipofectamine 2000 (Life Technologies) to cause transient expression.

Test [5] addresses T2, Olfr205 (Mus musculus, UniProt B9EKD6).
T2 sequence (B9EKD6 1-305): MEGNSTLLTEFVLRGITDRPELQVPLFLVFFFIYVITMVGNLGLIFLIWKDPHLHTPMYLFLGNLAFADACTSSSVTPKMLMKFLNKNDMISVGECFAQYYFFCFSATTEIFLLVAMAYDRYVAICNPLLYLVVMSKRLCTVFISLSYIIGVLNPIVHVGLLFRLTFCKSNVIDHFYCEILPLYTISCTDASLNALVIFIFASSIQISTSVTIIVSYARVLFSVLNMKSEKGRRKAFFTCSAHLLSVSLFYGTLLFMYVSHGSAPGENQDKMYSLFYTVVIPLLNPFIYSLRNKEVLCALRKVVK
Description: Fluo-4 Ca2+ uptake in isolated olfactory sensory neuron HI25-18 (calculation method (A)). It is filed as cell-based. To be noted: HI25-18 cells. Here is the method: as §1, §2, §3

Test [6] addresses T2, Olfr205. Description: Reconstruction experiment: cAMP-responsive luciferase in HEK293 cells expressing Olfr205. It is filed as cell-based.
Text: as §4, §5

The target in test [7] is Olfr45 (Mus musculus, UniProt A0JLW4). Description: cell-based. The procedure:
(§6) The olfactory epithelium-derived cell solution obtained above was subjected to centrifugation at 1000 rpm for 5 minutes (2420, KUBOTA Co.) to remove the supernatant, and to this, a Ca^2+ ringer solution containing […] Fluo4-AM (F312, Dojindo) and 0.02 wt % Pluronic F-127 (P6867, Molecular Probes) was then added. A polystyrene slide having about 400000 nano chambers with a diameter of […] for As OneCell Picking system (AS ONE Corporation; automated single-cell analysis and isolation system [equipped with temperature control system, time lapse system, perfusion system]; Yoshimoto, et al., Scientific Reports Vol. 3 (2013) 1191; hereinafter this can be referred to as “OneCell system” in the description) was immersed in 2% PVP (polyvinyl pyrrolidone (NACALAI TESQUE, INC.)) and then put on a perfusion jig for the OneCell system. […]
(§7) Subsequently, the slide was put on a prescribed site of the OneCell system and maintained with a Ca^2+ ringer solution having been circulated, and fluorescent images derived from Fluo-4 of each olfactory epithelium-derived cell included in the nano chambers were observed through 4×objective lens, and changes in fluorescence intensity over time were recorded. […]

Test [8] deals with T3, Olfr166 (Mus musculus, UniProt Q8VGX2). To be noted: HG28-24 cells, stimulation by pyridine. The procedure: as §6, §7
For test [9], the target named is T3, Olfr166. Description: cell-based.
Text: as §4, §5

In test [10] the test system is human-derived olfactory receptor. Description: Human olfactory receptor-expressing cell array (404 sites, HEK293-C1/2 strain) on OneCell system. It is filed as cell-based. To be noted: concentration of 10 mM. The source says: In the substrate used, hydrophilicity is increased by plasma treatment of the surface of a slide glass (Matsunami Glass Ind., Ltd.) by a plasma modifier (PM100, Yamato Scientific Co., Ltd.) It should be noted that a machine used for dot printing is a LaboJet-500 manufactured by MicroJet. […] When the array is left to stand on specific culture conditions and observed after 2 days, it is expected that added HEK293-C1/2 strain is proliferated on the sites on which the plasmid has been immobilized to form colonies. After that, the substrate having formed colonies thereon is loaded on the above OneCell system in the method shown in 2).

The mark [11] stands for this setting: 3 mM 2-pentanone for 20 seconds every two minutes, measured 5 times.
Setting [12] is: stimulation by 2-pentanone, experiment independently carried out 5 times, read-out: relative value of increased Fluo-4 fluorescence intensity (high K+ ringer depolarization considered 100%).

T3 sequence (Q8VGX2 1-312): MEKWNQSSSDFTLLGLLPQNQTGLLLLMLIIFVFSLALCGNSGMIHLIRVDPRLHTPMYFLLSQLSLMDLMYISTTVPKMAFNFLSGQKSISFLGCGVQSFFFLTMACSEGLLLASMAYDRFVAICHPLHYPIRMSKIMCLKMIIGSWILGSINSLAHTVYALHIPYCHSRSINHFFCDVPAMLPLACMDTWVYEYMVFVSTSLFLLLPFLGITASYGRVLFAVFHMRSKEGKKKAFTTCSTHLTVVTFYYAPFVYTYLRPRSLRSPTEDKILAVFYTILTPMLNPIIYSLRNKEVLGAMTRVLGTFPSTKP
Sequence of Olfr45 (A0JLW4 1-311): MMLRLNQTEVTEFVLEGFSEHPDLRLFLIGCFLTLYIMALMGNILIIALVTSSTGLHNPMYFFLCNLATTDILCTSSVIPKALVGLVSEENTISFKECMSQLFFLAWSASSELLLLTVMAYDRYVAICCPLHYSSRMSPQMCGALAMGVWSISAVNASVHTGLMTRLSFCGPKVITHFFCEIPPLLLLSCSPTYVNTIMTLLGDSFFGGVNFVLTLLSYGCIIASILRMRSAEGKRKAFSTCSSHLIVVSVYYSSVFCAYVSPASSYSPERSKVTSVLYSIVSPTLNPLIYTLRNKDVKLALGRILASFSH
Sequence of Olfr1258 (Q8VGN6 1-311): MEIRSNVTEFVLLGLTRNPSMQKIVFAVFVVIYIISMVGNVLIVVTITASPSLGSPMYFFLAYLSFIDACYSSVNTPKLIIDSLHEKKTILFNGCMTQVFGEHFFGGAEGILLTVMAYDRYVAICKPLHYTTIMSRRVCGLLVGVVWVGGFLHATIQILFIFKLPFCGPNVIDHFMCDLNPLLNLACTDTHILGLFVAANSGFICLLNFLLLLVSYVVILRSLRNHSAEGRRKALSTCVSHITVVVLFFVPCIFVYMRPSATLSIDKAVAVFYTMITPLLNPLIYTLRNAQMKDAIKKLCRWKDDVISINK

Broadly, the EC50 is the midpoint of the concentration-response curve. In turn, `CCC(C)=O` [2-butanone] returned an EC50 in test [1] of around 1.5 mM.
As for `CCCC(C)=O` [2-pentanone], the “number of olfactory sensory neurons that reacted with the odor molecule” value in [2] is given as “approximately 100”. Besides, the results for the “increase in transient fluorescence intensity derived from Fluo-4” value in test [3] (setting [11]) and in test [5] (setting [11]) were 46±12 and 38±10, respectively. Also, the figures for the Emax in test [3] (setting [12]) and in test [5] (setting [12]) were 74 ± 3% and 67 ± 4%, respectively. The EC50 in test [4] was 2.1 ± 0.6 mM; in test [6] it was around 4 mM.
Turning to `c1ccncc1` [pyridine], the “increased amount of fluorescence intensity derived from Fluo-4” value was found to be 195±70 in [7] (IG04-13 cells, stimulation by pyridine) and 153±47 in test [8]. For the same molecule, the Emax in test [7] (read-out: relative value of increased Fluo-4 fluorescence intensity (high K+ ringer depolarization considered 100%)) worked out at 120 ± 6%. Besides, the “relative value of increased Fluo-4 fluorescence intensity (high K+ ringer depolarization considered 100%)” value in test [8] (experiment independently carried out 5 times) turned out to be 132±5%. Further, the EC50 in [9] is around 5 mM.
Regarding `COc1cc(C=O)ccc1O` [vanillin], the “fluorescence intensity response of cells to the odor molecule” value in test [10] is on record as “increase in fluorescence intensity was observed in some cells”.
